From paper PMC9767854, “Discovery and mechanism studies of a novel ATG4B inhibitor Ebselen by drug repurposing and its anti-colorectal cancer effects in mice” (Cell & Bioscience, 2022)

Experiments:
CASP3 = test system: CASP3; design: method as in PMID 23632366, PMID 25468037; details: cited from earlier work
HeLa cell line = experiment: Autophagy flux by LC3B-II western blot in HeLa; type: cell-based; details: Torin 1 2 μM, CQ 40 μM
Experimental: Since ATG4B is a key protein in autophagy, the experiment on the effect of Ebselen on autophagy flux was worth proposing. First of all, we determined the most classic index LC3B for autophagy flux detection in HeLa cell line. […] A, B HeLa cells were treated with Torin 1 (2 μM) or CQ (40 μM) and detected by western blot. C, D SW620 cells were transduced with sgCon and sgATG4B lentiviruses, respectively. Then cells were treated with CQ (40 μM) and detected by western blot. E, F HCT116 were treated with Ebselen (5 and 10 μM) or CQ (40 μM) and subjected to western blot. G, H SW620 were treated with Ebselen (10 μM) or CQ (40 μM) and western blotting was carried out to detect the protein levels. I, J Immunofluorescence analysis of endogenous LC3B in HCT116 treated with Ebselen (10 μM) or CQ (40 μM). Dots numbers for LC3B were derived from counting at least 20 cells and 5 fields from three independent replicated experiments. Bar = 10 μm. K HCT116 cells were treated with 2 μM Torin 1 in the presence or absence of 10 μM Ebselen for 12 h, then the level ratio of long-lived proteins was measured by flow cytometry

WT and ATG4B KO HCT116 = experiment: Apoptosis detection by cleaved PARP western blot; type: cell-based; details: low or high concentrations of Ebselen; STS 2 μM; 6 h

## O=c1c2ccccc2sn1-c1ccccc1 [Ebsulfur]
CASP3
  inhibition on CASP3: clear inhibition

## CCC(=O)N1CCN(c2ccc(-n3c(=O)ccc4cnc5ccc(-c6cnc7ccccc7c6)cc5c43)cc2C(F)(F)F)CC1 [Torin 1]
HeLa cell line
  effect on autophagy (LC3B-II accumulation with CQ): autophagy inducer

## CN[C@@H]1C[C@H]2O[C@@](C)([C@@H]1OC)n1c3ccccc3c3c4c(c5c6ccccc6n2c5c31)C(=O)NC4 [Staurosporine (STS), Staurosporine]
WT and ATG4B KO HCT116
  apoptosis (cleaved PARP): generation of apoptosis
